One compound from patent publication US20250210194A1, “METHODS AND SYSTEMS FOR D[…] HETEROGENEITY” (Foundation Medicine, Inc., priority 2022, published 2025) can be followed below.

For the assay, the system named is EGFR driver alteration-positive NSCLC patients. The assay can be described thus: Progression free survival (PFS) from start of 1st line Osimertinib in a real-world NSCLC patient cohort (Kaplan Meier). It counts as in vivo, human. The note with it: for median progression free survival (mPFS): 45 patients, 1st line Osimertinib. The text has this:
Starting with a patient cohort of 15,035 patients, the data was filtered (for biopsy type and bait set). The data was then filtered to exclude data for patients for whom a computational tumor purity was less than or equal to 20% or for whom a computational tumor purity value was missing. The remaining patient data was divided according to whether the samples were early-stage specimens, late-stage specimens, or of ambiguous origin. For the late-stage specimens, data for patients who were first diagnosed prior to Jan. […] Finally, data was selected for N=135 1st line Osimertinib-treated, EGFR driver alteration-positive NSCLC patients for whom tumor samples were sequenced at most a year prior to start of therapy.
The group of 135 patients were then divided into three tertiles with 45 patients each. Progression free survival (PFS) from start of 1st line Osimertinib was determined as follows: • Index state was the start of 1st line therapy. • Progression date: for patients who received a subsequent line of therapy, the event date was the earliest progression event that occurred more than 14 days after the index date, or date of death, provided that the progression event or date of death occurred before the start date of the subsequent line of therapy plus 14 days. For patients without a subsequent line of therapy, the event date was the earliest progression event that occurred more than 14 days after the index date, or the date of death. • Censor date: patients with a subsequent line of therapy were censored at their last clinic note date if it occurred between the index date and the start date of the subsequent line of therapy plus 14 days. Patients for whom the last clinic note date was not available within this window were censored at their last date of confirmed structured activity (i.e., the last available visit date within the Visit Table) within this time window. Patients without a subsequent line of therapy were censored at their last clinic note date.

Take `C=CC(=O)Nc1cc(Nc2nccc(-c3cn(C)c4ccccc34)n2)c(OC)cc1N(C)CCN(C)C` [Osimertinib]: the “median progression free survival (mPFS)” value is 16.5 months (first tertile (lowest tumor heterogeneity score)), 10.5 months (second tertile (intermediate tumor heterogeneity score)) and 11.9 months (third tertile (highest tumor heterogeneity score)). The “median PFS” value by setting is: (high score group: tumor heterogeneity score >=1, 1st line Osimertinib) 10.8 months; (low score group: tumor heterogeneity score <1, 1st line Osimertinib) 16.0 months. The mPFS was found to be 11.11 (score category High (THS >=1), EGFR CCF category High (CCF >=0.5), N=74); 6.54 months (score category High (THS >=1), EGFR CCF category Low (CCF <0.5), N=12); 16.01 months (score category Low (THS <1), EGFR CCF category High (CCF >=0.5), N=39). For the same compound, the “Median progression free survival (mPFS) from start of 1st line Osimertinib” value (whole cohort, N=135 EGFR driver alteration-positive NSCLC patients) turned out to be 12.7 months.
